Data: patent publication US20100056570A1, “FUNGICIDES” (Syngenta Crop Protection, Inc., priority 2006, published 2010)

Row | Compound | melting point
1 | CSC(Oc1cc2cc(Br)cnc2cc1F)C(=O)NC(C)(C)C (stereo not drawn) [12 (6), 2-(3-Bromo-7-fluoro-quinolin-6-yloxy)-N-tert-butyl-2-methylsulfanyl-acetamide] | 144 to 145 °C
2 | CSC(Oc1cc2cc(I)cnc2cc1F)C(=O)NC(C)(C)C (stereo not drawn) [12 (7), 2-(3-iodo-7-fluoro-quinolin-6-yloxy)-N-tert-butyl-2-methylsulfanyl-acetamide] | 165 to 166 °C
3 | CSC(Oc1cc2cc(Br)cnc2cc1Cl)C(=O)NC(C)(C)C (stereo not drawn) [12 (2), 2-(3-Bromo-7-chloro-quinolin-6-yloxy)-N-tert-butyl-2-methylsulfanyl-acetamide] | 172 to 174 °C

Continued, values first:

Row | melting point | Compound
4 | 170 to 173 °C | CSC(Oc1cc2cc(-c3ccsc3)cnc2cc1F)C(=O)NC(C)(C)C (stereo not drawn) [12 (30), N-tert-butyl-2-(7-fluoro-3-thiophen-3-yl-quinolin-6-yloxy)-2-methylsulfanyl-acetamide]
5 | 132 to 134 °C | CSC(Oc1cc2cc(Br)cnc2cc1C)C(=O)NC(C)(C)C (stereo not drawn) [12 (13), 2-(3-Bromo-7-methyl-quinolin-6-yloxy)-N-tert-butyl-2-methylsulfanyl-acetamide]
6 | 132 to 134 °C | COCC#CC(C)(C)NC(=O)C(C)(S)Oc1cc2cc(-c3ccsc3)cnc2cc1F (stereo not drawn) [251 (30), 2-(7-Fluoro-3-thiophen-3-yl-quinolin-6-yloxy)-N-(4-methoxy-1,1-dimethyl-but-2-ynyl)-2-methyl-sulfanyl-acetamide]
